According to US20240148709A1, “METHODS OF TREATING EYE PAIN AND EYE DISORDERS” (Aisa Pharma, Inc., priority 2022, published 2024):
Where “and” joins values, the source holds several entries; their conditions need not be identical. Identical values can stand only once.

System: participants with SSc-RP
Assay: Scleroderma Health Assessment Questionnaire (SHAQ), Phase 2a study Part A
Type: in vivo, human
Procedure: Part A—double-blind, placebo-controlled, parallel-group, dose selection, will assess the safety and efficacy of two doses of cilnidipine (10 mg and 20 mg), alone and in combination with tadalafil. A total of 36 participants will be randomized to one of six prespecified treatment arms. Refer to FIG. 1 for treatment arms in Part A of the study. Dosing last for 12 (±2) days in which participants will self-administer daily doses of assigned treatment in the morning. Each participant will take one capsule and one tablet to blind the active therapy being received.
The standard, validated, patient reported outcome measures tool for SSc patients, the SHAQ, will be collected at the time points specified in the study schedules (FIG. 2 and FIGS. 3A and 3B) to assess the participant's quality of life. The SHAQ includes a Raynaud's VAS that will also be reported separately.
Results: Patients in the study were administered the Scleroderma Health Assessment Questionnaire (SHAQ) at the time of study entry and during clinic visits following the treatment period. The study is a two-part, parallel arm design, prospective, double-blind, randomized study conducted in Australia (Flinders Medical Center). 27 patients were randomized into the first phase of the study, following which a DSMB meeting was held, which reviewed data on the primary study endpoint and key Raynaud's secondary endpoints. Data on the SHAQ was not available for the DSMB to review. The mITT population, in which any data was available post treatment was 24 patients was the analysis population for this first part of the study. The second part (i.e., part B) of the study will randomize 36 patients in a double blind, randomized, prospective, placebo controlled, crossover study. In the first part (i.e., Part A) of the study for which data is presented, patients were randomized into 6 groups, cilnidipine at two doses (10 and 20 mg) alone and in combination with tadalafil 5 mg, tadalafil 5 mg alone, and placebo. […] The DSMB recommended that the study proceed into its double blind prospective cross overpowered second phase and compare cilnidipine 20 mg alone to placebo.

[1] = cilnidipine 20 mg arms (alone or + tadalafil 5 mg)

## COCCOC(=O)C1=C(C)NC(C)=C(C(=O)OC/C=C/c2ccccc2)C1c1cccc([N+](=O)[O-])c1 (stereo not shown) [Cilnidipine, cilnidipine]
[1]
  SHAQ Visual Analog Scale-Breathing Problems, Change from Baseline, Q3: 0.300
  SHAQ Visual Analog Scale-Breathing Problems, In Clinic Visit (Day 12), Max: 0.50
  SHAQ Visual Analog Scale-Breathing Problems, In Clinic Visit (Day 12), Mean (SD): 0.300 (0.2646)
  SHAQ Visual Analog Scale-Breathing Problems, In Clinic Visit (Day 12), Median: 0.400
  SHAQ Visual Analog Scale-Breathing Problems, In Clinic Visit (Day 12), Min: 0.00
  SHAQ Visual Analog Scale-Breathing Problems, In Clinic Visit (Day 12), Q1: 0.000
  SHAQ Visual Analog Scale-Breathing Problems, In Clinic Visit (Day 12), Q3: 0.500
  SHAQ Visual Analog Scale-Breathing Problems, Percent Change from Baseline, Max: 150.0%
  SHAQ Visual Analog Scale-Breathing Problems, Percent Change from Baseline, Mean (SD): −5.56 (135.742) %
  SHAQ Visual Analog Scale-Breathing Problems, Percent Change from Baseline, Median: −66.67%
  SHAQ Visual Analog Scale-Breathing Problems, Percent Change from Baseline, Min: −100.0%
  SHAQ Visual Analog Scale-Breathing Problems, Percent Change from Baseline, Q1: −100.00%
  SHAQ Visual Analog Scale-Breathing Problems, Percent Change from Baseline, Q3: 150.00%
  SHAQ Visual Analog Scale-Intestinal Problems, Change from Baseline, Max: 0.60
  SHAQ Visual Analog Scale-Intestinal Problems, Change from Baseline, Mean (SD): 0.300 (0.3000)
  SHAQ Visual Analog Scale-Intestinal Problems, Change from Baseline, Median: 0.300
  SHAQ Visual Analog Scale-Intestinal Problems, Change from Baseline, Min: 0.00
  SHAQ Visual Analog Scale-Intestinal Problems, Change from Baseline, Q1: 0.000
  SHAQ Visual Analog Scale-Intestinal Problems, Change from Baseline, Q3: 0.600
  SHAQ Visual Analog Scale-Intestinal Problems, In Clinic Visit (Day 12), Max: 2.10
  SHAQ Visual Analog Scale-Intestinal Problems, In Clinic Visit (Day 12), Mean (SD): 1.133 (1.0599)
  SHAQ Visual Analog Scale-Intestinal Problems, In Clinic Visit (Day 12), Median: 1.300
  SHAQ Visual Analog Scale-Intestinal Problems, In Clinic Visit (Day 12), Min: 0.00
  SHAQ Visual Analog Scale-Intestinal Problems, In Clinic Visit (Day 12), Q1: 0.000
  SHAQ Visual Analog Scale-Intestinal Problems, In Clinic Visit (Day 12), Q3: 2.100
  SHAQ Visual Analog Scale-Intestinal Problems, Percent Change from Baseline, Max: 40.0%
  SHAQ Visual Analog Scale-Intestinal Problems, Percent Change from Baseline, Mean (SD): 35.00 (7.071) %
  SHAQ Visual Analog Scale-Intestinal Problems, Percent Change from Baseline, Median: 35.00%
  SHAQ Visual Analog Scale-Intestinal Problems, Percent Change from Baseline, Min: 30.0%
  SHAQ Visual Analog Scale-Intestinal Problems, Percent Change from Baseline, Q1: 30.00%
  SHAQ Visual Analog Scale-Intestinal Problems, Percent Change from Baseline, Q3: 40.00%
  SHAQ Visual Analog Scale-Pain, Change from Baseline, Max: −0.50
  SHAQ Visual Analog Scale-Pain, Change from Baseline, Mean (SD): −1.100 (0.7937) and −1.1 (0.79)
  SHAQ Visual Analog Scale-Pain, Change from Baseline, Median: −0.800
  SHAQ Visual Analog Scale-Pain, Change from Baseline, Min: −2.00
  SHAQ Visual Analog Scale-Pain, Change from Baseline, Q1: −2.000
  SHAQ Visual Analog Scale-Pain, Change from Baseline, Q3: −0.500
  SHAQ Visual Analog Scale-Pain, In Clinic Visit (Day 12), Max: 2.10
  SHAQ Visual Analog Scale-Pain, In Clinic Visit (Day 12), Mean (SD): 1.067 (0.9074)
  SHAQ Visual Analog Scale-Pain, In Clinic Visit (Day 12), Median: 0.700
  SHAQ Visual Analog Scale-Pain, In Clinic Visit (Day 12), Min: 0.40
  SHAQ Visual Analog Scale-Pain, In Clinic Visit (Day 12), Q1: 0.400
  SHAQ Visual Analog Scale-Pain, In Clinic Visit (Day 12), Q3: 2.100
  SHAQ Visual Analog Scale-Pain, Percent Change from Baseline, Max: −48.8%
  SHAQ Visual Analog Scale-Pain, Percent Change from Baseline, Mean (SD): −52.56 (3.454) %
  SHAQ Visual Analog Scale-Pain, Percent Change from Baseline, Median: −53.33%
  SHAQ Visual Analog Scale-Pain, Percent Change from Baseline, Min: −55.6%
  SHAQ Visual Analog Scale-Pain, Percent Change from Baseline, Q1: −55.56%
  SHAQ Visual Analog Scale-Pain, Percent Change from Baseline, Q3: −48.78%
  SHAQ Visual Analog Scale-Raynaud's, Change from Baseline, Max: −0.30
  SHAQ Visual Analog Scale-Raynaud's, Change from Baseline, Median: −1.100
  SHAQ Visual Analog Scale-Raynaud's, Change from Baseline, Min: −2.40
  SHAQ Visual Analog Scale-Raynaud's, Change from Baseline, Q1: −2.400
  SHAQ Visual Analog Scale-Raynaud's, Change from Baseline, Q3: −0.300
  SHAQ Visual Analog Scale-Raynaud's, In Clinic Visit (Day 12), Max: 1.40
  SHAQ Visual Analog Scale-Raynaud's, In Clinic Visit (Day 12), Mean (SD): 1.033 (0.4041)
  SHAQ Visual Analog Scale-Raynaud's, In Clinic Visit (Day 12), Median: 1.100
  SHAQ Visual Analog Scale-Raynaud's, In Clinic Visit (Day 12), Min: 0.60
  SHAQ Visual Analog Scale-Raynaud's, In Clinic Visit (Day 12), Q1: 0.600
  SHAQ Visual Analog Scale-Raynaud's, In Clinic Visit (Day 12), Q3: 1.400
  SHAQ Visual Analog Scale-Raynaud's, Percent Change from Baseline, Max: −33.3%
  SHAQ Visual Analog Scale-Raynaud's, Percent Change from Baseline, Mean (SD): −48.63 (18.070) %
  SHAQ Visual Analog Scale-Raynaud's, Percent Change from Baseline, Median: −44.00%
  SHAQ Visual Analog Scale-Raynaud's, Percent Change from Baseline, Min: −68.6%
  SHAQ Visual Analog Scale-Raynaud's, Percent Change from Baseline, Q1: −68.57%
  SHAQ Visual Analog Scale-Raynaud's, Percent Change from Baseline, Q3: −33.33%
  SHAQ alternative disability index, Change from Baseline, Max: 0.00
  SHAQ alternative disability index, Change from Baseline, Mean (SD): −0.083 (0.0722)
  SHAQ alternative disability index, Change from Baseline, Median: −0.125
  SHAQ alternative disability index, Change from Baseline, Min: −0.13
  SHAQ alternative disability index, Change from Baseline, Q1: −0.125
  SHAQ alternative disability index, Change from Baseline, Q3: 0.000
  SHAQ alternative disability index, In Clinic Visit (Day 12), Max: 0.25
  SHAQ alternative disability index, In Clinic Visit (Day 12), Mean (SD): 0.125 (0.1250)
  SHAQ alternative disability index, In Clinic Visit (Day 12), Median: 0.125
  SHAQ alternative disability index, In Clinic Visit (Day 12), Min: 0.00
  SHAQ alternative disability index, In Clinic Visit (Day 12), Q1: 0.000
  SHAQ alternative disability index, In Clinic Visit (Day 12), Q3: 0.250
  SHAQ alternative disability index, Percent Change from Baseline, Max: −33.3%
  SHAQ alternative disability index, Percent Change from Baseline, Mean (SD): −41.67 (11.785) %
  SHAQ alternative disability index, Percent Change from Baseline, Median: −41.67%
  SHAQ alternative disability index, Percent Change from Baseline, Min: −50.0%
  SHAQ alternative disability index, Percent Change from Baseline, Q1: −50.00%
  SHAQ alternative disability index, Percent Change from Baseline, Q3: −33.33%
Pooled cilnidipine 10 mg or 20 mg (n=7)
  mean decrease in patient reported disease severity on the SHAQ: 60%
